Measured values from patent publication US10005733B2, “N-(4-hydroxy-4-methyl-cyclohexyl)-4-phenyl-benzenesulfonamide and N-(4-hydroxy-4-methyl-cyclohexyl)-4-(2-pyridyl)-benzenesulfonamide compounds and their therapeutic use” (PIMCO 2664 LIMITED, priority 2014, dated 2018).

Key:
CYP2C19 = target: T1, CYP2C19 (Homo sapiens, UniProt P33261); test: Human Cytochrome P450 Inhibition Assay (Bactosomes), CYP2C19; assay type: in vitro ADME; conditions: recombinant Bactosomes, probe substrate, 10 minutes at 37° C.
T1 construct: purchased Cypex Ltd, Dundee, Scotland UK
Protocol: (§1) The ability of test compounds to inhibit five of the most relevant cytochrome P450 enzymes was measured by determination of the activity of cytochrome P450 enzymes in recombinant cytochrome preparations, called Bactosomes (Cypex Ltd, Dundee, Scotland UK DD2 1NH), in the presence of a specific probe substrate. Bactosomes are a highly efficient and cost-effective source of recombinant CYP450s which have a higher specific activity of enzyme compared to other sources, such as liver microsomes. […] The following CYP450 isoforms were assayed: CYP1A2, CYP2C9, CYP2C19, CYP2D6 and CYP3A4. The study of CYP450 inhibition potential in Bactosomes is accepted as a valuable model permitting rapid prediction of potential drug-drug interactions in vivo (see, e.g., Weaver et al., 2003).
(§2) Bactosomes were obtained from a commercial source (Cypex, Scotland, UK). Test compounds were incubated with Bactosomes at 6 concentrations. Samples were incubated for 10 minutes, after which the reaction was stopped and the samples analysed by LC-MS/MS Multiple Reaction Monitoring (MRM) for the presence/amount of substrate probe.
(§3) CYP450 enzymes (final protein 75 pmol/mL for CYP1A2; 12.5 pmol/mL for CYP2C19; and 25 pmol/mL for CYP2C9, 2D6 and 3A4), 0.1 M phosphate buffer pH 7.4, probe and test compound (final concentration 50, 15.8, 5, 1.58, 0.5 and 0.158 μM; diluted from 10 mM stock solution to give a final DMSO concentration of 1%) were pre-incubated at 37° C. for 5 minutes. The reaction was initiated by the addition of 20 μL of 10 mM NADPH in phosphate buffer. The final incubation volume was 200 μL. The following control inhibitors were used for each CYP450 inhibition assay: CYP1A2: α-naphthoflavone; CYP2C9: sulfaphenazole; CYP2C19: tranylcypromine; CYP2D6: quinidine; CYP3A4: ketoconazole.
(§4) Each compound was incubated for 10 minutes at 37° C. The reactions were stopped by the addition of methanol (final composition 1:1, aqueous: methanol). The incubation plates were shaken, chilled at […] for 2 hours, and centrifuged at 3500 rpm for 15 minutes at 4° C. to precipitate the protein.
(§5) IC50 values were determined by linear transformation within Microsoft Excel.

CYP2D6 = target: T2, CYP2D6 (Homo sapiens, UniProt P10635); test: Human Cytochrome P450 Inhibition Assay (Bactosomes), CYP2D6; assay type: in vitro ADME; conditions: recombinant Bactosomes, probe substrate, 10 minutes at 37° C.
T2 construct: purchased Cypex Ltd, Dundee, Scotland UK
Protocol: as §1, §2, §3, §4, §5

CYP3A4 = target: T3, CYP3A4 (Homo sapiens, UniProt P08684); test: Human Cytochrome P450 Inhibition Assay (Bactosomes), CYP3A4; assay type: in vitro ADME; conditions: recombinant Bactosomes, probe substrate, 10 minutes at 37° C.
T3 construct: purchased Cypex Ltd, Dundee, Scotland UK
Protocol: as §1, §2, §3, §4, §5

hERG ion channel = target: T4, hERG ion channel (Homo sapiens, UniProt Q12809); test: hERG Ion Channel Assay (Q-patch, hERG-CHO cells); assay type: cell-based; conditions: CHO cells stably transfected with hERG (hERG-CHO), pH 7.4, hERG tail current
T4 construct: expressed in transfected cells; host or cells: Chinese Hamster Ovary cells (hERG-CHO)
Protocol: The activity of the compounds against the hERG ion channel was tested. The assay was conducted using the automated path-clamp, Q-patch method using stably transfected Chinese Hamster Ovary cells (hERG-CHO). hERG-CHO cells were cultured in F-12 Kaighn's Nutrient Mixture medium (Invitrogen)+10% FBS at 37° C. for 1-3 days. Cells were kept at 30° C. for 24 to 48 hours prior to patch clamping in order to increase the hERG current amplitude. Subsequently, the cells were harvested by trypsinisation, and kept in Serum Free Medium (SFM) in the Q-patch cell preparation state for up to 6 hours at room temperature before being washed and re-suspended in extracellular solution and applied to the patch clamp sites for data recording.
Patch-clamp voltage protocol: After whole cell configuration was achieved, the cell was held at −80 mV. A 50 millisecond pulse to −40 mV was delivered to measure the leaking current, which was subtracted from the tail current on-line. Then the cell was depolarized to +20 mV for 2 seconds, followed by a one second pulse to −40 mV to reveal hERG tail current. This paradigm was delivered once every 5 seconds to monitor the current amplitude.
Extracellular solution: 137 mM NaCl, 4 mM KCl, 1.8 mM CaCl2, 1 mM MgCl2, 10 mM D(+)-glucose, 10 mM HePES buffer (pH adjusted to 7.4 with NaOH).
After the whole cell configuration was achieved, the extracellular solution (control) was applied first and the cell was stabilized for 2 minutes in extracellular solution. The test compound was then applied from low concentrations to high concentrations cumulatively. The cell was incubated with each test concentration for 5 minutes. During each incubation, the cell was repetitively stimulated using the voltage protocol described above, and the tail current amplitude was continuously monitored.
The degree of inhibition (%) was obtained by measuring the tail current amplitude, induced by a one second test pulse to −40 mV after a two second pulse to +20 mV, before and after incubation with the test compound. The difference in current was normalized to control and multiplied by 100 in order to obtain the percent inhibition.
Concentration (log) response curves were fitted to a logistic equation (three parameters assuming complete block of the current at very high test compound concentrations) to generate estimates of the 50% inhibitory concentration (IC50). The concentration-response relationship of each compound was constructed from the percentage reductions of current amplitude by sequential concentrations.

T3 sequence (P08684 whole entry): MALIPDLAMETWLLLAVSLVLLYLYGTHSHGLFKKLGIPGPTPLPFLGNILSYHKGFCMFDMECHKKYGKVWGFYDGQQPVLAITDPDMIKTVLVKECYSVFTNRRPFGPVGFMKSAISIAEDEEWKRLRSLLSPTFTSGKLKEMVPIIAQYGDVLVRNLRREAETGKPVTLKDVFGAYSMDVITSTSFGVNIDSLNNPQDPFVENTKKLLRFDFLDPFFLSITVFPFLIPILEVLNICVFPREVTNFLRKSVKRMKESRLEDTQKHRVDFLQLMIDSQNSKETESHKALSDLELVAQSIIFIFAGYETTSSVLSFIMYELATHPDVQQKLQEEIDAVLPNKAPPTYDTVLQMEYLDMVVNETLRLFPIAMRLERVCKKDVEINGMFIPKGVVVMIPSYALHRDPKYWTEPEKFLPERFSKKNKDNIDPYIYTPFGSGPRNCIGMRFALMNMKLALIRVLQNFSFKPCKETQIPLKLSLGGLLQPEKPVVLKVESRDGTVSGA
T4 sequence (Q12809 whole entry): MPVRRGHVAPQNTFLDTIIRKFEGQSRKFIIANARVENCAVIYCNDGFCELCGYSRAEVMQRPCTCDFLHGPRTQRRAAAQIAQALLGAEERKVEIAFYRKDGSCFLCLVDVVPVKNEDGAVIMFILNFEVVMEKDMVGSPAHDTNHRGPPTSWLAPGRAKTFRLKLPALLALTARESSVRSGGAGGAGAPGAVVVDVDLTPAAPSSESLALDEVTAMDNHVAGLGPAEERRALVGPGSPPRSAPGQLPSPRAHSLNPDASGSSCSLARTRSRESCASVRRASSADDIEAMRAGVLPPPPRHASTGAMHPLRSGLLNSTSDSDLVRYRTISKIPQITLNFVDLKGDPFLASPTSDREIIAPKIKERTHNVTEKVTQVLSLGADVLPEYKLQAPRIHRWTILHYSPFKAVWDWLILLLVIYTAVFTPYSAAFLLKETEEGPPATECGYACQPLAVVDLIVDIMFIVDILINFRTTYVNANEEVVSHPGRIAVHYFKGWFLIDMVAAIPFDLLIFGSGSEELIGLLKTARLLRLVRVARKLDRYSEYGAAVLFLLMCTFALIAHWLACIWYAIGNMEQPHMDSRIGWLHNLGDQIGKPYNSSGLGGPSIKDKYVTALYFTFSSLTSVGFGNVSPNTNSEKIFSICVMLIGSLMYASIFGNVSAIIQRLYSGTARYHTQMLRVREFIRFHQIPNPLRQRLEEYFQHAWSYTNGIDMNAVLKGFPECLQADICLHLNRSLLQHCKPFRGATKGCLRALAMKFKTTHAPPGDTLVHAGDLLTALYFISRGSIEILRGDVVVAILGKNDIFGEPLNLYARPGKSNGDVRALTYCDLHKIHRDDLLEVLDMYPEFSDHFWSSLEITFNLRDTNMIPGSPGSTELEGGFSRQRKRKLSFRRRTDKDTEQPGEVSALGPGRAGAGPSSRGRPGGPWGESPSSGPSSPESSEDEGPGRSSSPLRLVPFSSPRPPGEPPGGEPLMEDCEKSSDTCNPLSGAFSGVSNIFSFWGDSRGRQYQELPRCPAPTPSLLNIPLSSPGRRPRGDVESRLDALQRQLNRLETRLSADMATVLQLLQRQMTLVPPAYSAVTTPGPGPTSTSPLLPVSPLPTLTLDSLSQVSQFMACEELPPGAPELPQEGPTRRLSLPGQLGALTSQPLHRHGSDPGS
T1 sequence (P33261 whole entry): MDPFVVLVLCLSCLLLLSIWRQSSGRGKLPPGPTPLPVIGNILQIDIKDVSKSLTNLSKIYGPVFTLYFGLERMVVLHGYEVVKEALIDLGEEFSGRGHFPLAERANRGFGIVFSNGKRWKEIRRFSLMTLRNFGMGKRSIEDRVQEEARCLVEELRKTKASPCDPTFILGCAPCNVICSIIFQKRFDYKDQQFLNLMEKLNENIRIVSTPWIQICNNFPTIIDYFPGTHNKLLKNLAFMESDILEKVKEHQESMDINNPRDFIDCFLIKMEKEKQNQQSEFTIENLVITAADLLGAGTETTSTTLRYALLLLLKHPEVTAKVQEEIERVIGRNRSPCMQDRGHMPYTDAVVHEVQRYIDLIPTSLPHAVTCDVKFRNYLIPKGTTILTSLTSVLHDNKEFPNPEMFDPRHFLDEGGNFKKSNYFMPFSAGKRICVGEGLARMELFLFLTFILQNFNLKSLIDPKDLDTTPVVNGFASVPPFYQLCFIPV
T2 sequence (P10635 whole entry): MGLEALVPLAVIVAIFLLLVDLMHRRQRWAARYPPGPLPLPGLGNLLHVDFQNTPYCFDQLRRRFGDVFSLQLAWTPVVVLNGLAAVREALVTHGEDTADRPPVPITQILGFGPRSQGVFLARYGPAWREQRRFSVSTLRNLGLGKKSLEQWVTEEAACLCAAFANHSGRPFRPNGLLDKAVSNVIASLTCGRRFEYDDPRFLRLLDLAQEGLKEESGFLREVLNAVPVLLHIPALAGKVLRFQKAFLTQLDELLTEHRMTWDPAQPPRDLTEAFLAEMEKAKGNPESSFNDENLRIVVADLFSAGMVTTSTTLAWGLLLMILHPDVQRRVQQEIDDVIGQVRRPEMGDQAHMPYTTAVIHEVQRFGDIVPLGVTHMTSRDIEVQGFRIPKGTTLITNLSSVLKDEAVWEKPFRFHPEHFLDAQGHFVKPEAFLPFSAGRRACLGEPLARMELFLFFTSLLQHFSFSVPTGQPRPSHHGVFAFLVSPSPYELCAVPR

IC50 (CYP2C19) [µM] | IC50 (CYP2D6) [µM] | IC50 (CYP3A4) [µM] | Compound | inhibition at 5 min, 10 µM (hERG ion channel) [%]
> 25 | 20.7 | > 25 | O=S(=O)(N[C@H]1CC[C@H](O)CC1)c1ccc(-c2ccc(F)cc2F)cc1 [ABD599, reference compound] | 74.9
– | – | – | C[C@]1(O)CC[C@H](NS(=O)(=O)c2ccc(-c3ccc(F)cc3F)cc2)CC1 [ABD900] | 15.1
> 50 | > 50 | > 50 | C[C@]1(O)CC[C@H](NS(=O)(=O)c2ccc(-c3ccc(C#N)cc3)c(F)c2)CC1 [HMC-C-07-A, 4′-Cyano-2-fluoro-N-((1r,4r)-4-hydroxy-4-methylcyclohexyl)-[1,1′-biphenyl]-4-sulfonamide] | 47
30 | 19 | 29 | C[C@]1(O)CC[C@H](NS(=O)(=O)c2ccc(-c3ccc(Cl)cc3C#N)c(F)c2)CC1 [HMC-C-08-A, 4′-Chloro-2′-cyano-2-fluoro-N-((1r,4r)-4-hydroxy-4-methylcyclohexyl)-[1,1′-biphenyl]-4-sulfonamide] | 29
> 50 | > 50 | 33 | C[C@]1(O)CC[C@H](NS(=O)(=O)c2ccc(-c3ccc(C#N)cc3Cl)cc2)CC1 [HMC-C-09-A, 2′-Chloro-4′-cyano-N-((1r,4r)-4-hydroxy-4-methylcyclohexyl)-[1,1′-biphenyl]-4-sulfonamide] | 57
8.5 | > 16 | 9.2 | C[C@]1(O)CC[C@@H](NS(=O)(=O)c2ccc(-c3cc(F)c(F)cc3F)cc2)CC1 [HMC-C-10-B, 2′,4′,5′-Trifluoro-N-((1s,4s)-4-hydroxy-4-methylcyclohexyl)-[1,1′-biphenyl]-4-sulfonamide] | –
5.1 | 9.3 | 12 | C[C@]1(O)CC[C@H](NS(=O)(=O)c2ccc(-c3ccc(Cl)cc3C#N)c(Cl)c2)CC1 [HMC-C-11-A, 2,4′-Dichloro-2′-cyano-N-((1r,4r)-4-hydroxy-4-methylcyclohexyl)-[1,1′-biphenyl]-4-sulfonamide] | –
> 50 | > 50 | > 50 | C[C@]1(O)CC[C@H](NS(=O)(=O)c2ccc(-c3ncc(Cl)cc3C#N)cc2)CC1 [HMC-N-05-A, 4-(5-Chloro-3-cyanopyridin-2-yl)-N-((1r,4r)-4-hydroxy-4-methylcyclohexyl)benzenesulfonamide] | 35

Compound | IC50 (CYP2C19) [µM] | IC50 (CYP2D6) [µM] | IC50 (CYP3A4) [µM] | inhibition at 5 min, 10 µM (hERG ion channel) [%]
Cc1cc(S(=O)(=O)N[C@H]2CC[C@H](O)CC2)ccc1-c1ccc(F)cc1F [ABD735, reference compound] | > 25 | > 25 | > 25 | –
C[C@]1(O)CC[C@@H](NS(=O)(=O)c2ccc(-c3ccc(F)cc3F)cc2)CC1 [ABD899, reference compound] | 7.3 | 45.3 | 21.6 | 85.2
C[C@]1(O)CC[C@@H](NS(=O)(=O)c2ccc(-c3ccc(C#N)cc3)c(F)c2)CC1 [HMC-C-07-B, 4′-Cyano-2-fluoro-N-((1s,4s)-4-hydroxy-4-methylcyclohexyl)-[1,1′-biphenyl]-4-sulfonamide] | > 50 | > 50 | > 50 | 40
